Source: patent EP1832655A2, “Methods for detecting and reversing resistance to macrocyclic lactone compounds” (priority 1997, dated 1998)

Legend:
Assay type in all cases: in vivo
[1] = tested on: MOXIDECTIN-RESISTANT STRAIN OF H. contortus (MOF14); test: Effect of verapamil on efficacy of moxidectin and ivermectin in jirds, moxidectin-resistant strain; details: for EFFICACY (%) / WORM COUNTS (MEAN ± S.E.): MOF14 in jirds, 7 jirds/group, oral, MOX 0.017 mg/kg, IVM 0.028 mg/kg, VRP 20 mg/kg
[2] = tested on: H. contortus moxidectin-resistant (MOF14) strain; test: Efficacy of verapamil with or without ivermectin in jirds, moxidectin resistant strain; details: for % EFFICACY: MOX-RESISTANT (MOF14) strain in jirds, oral, VRP 20 mg/kg, IVM 0.046 mg/kg
Method: (§1) Jirds, which are fed on a standard commercial ration to which 0.02% hydrocortisone has been added 5 days prior to infection, are inoculated with 1000 exsheathed L3 H. contortus. On day 10 after inoculation, the jirds are treated with either water or various doses of moxidectin or ivermectin orally. Each treatment group contains 6 jirds. Probit analyses are used to estimate LD50 levels for each anthelmintic against each strain.
(§2) H. contortus. Verapamil is given concomitantly with ivermectin by the oral route. Table 3. DEM[…] H. contortus […] OR S[…] IN JIRDS (n = # per group)

[3] = tested on: H. contortus susceptible (PF14) strain; test: Efficacy of verapamil with or without ivermectin in jirds, susceptible strain; details: for % EFFICACY: SUSCEPTIBLE (PF14) strain in jirds, oral, VRP 20 mg/kg, IVM 0.024 mg/kg
Method: as §1, §2

[4] = verapamil 20 mg/kg, resistant worms in jirds (Example 8)

Compound	EFFICACY (%) [1] [%]	WORM COUNTS (MEAN ± S.E.) [1]	% EFFICACY [2] [%]	% EFFICACY [3] [%]	effect of verapamil on the efficacy of moxidectin [1, 4]	increase in efficacy when verapamil is coadministered with ivermectin [1, 4]	effect of verapamil on the efficacy of ivermectin ([2]; verapamil 20 mg/kg, moxidectin resistant worms in jirds (Example 7))	effect on worm counts ([3]; verapamil alone, 20 to 80 mg/kg oral, jirds infected with susceptible or moxidectin resistant H. contortus)
22,23-dihydroavermectin B1 [ivermectin]	80	9 ± 1	79	54				
COc1ccc(CCN(C)CCCC(C#N)(c2ccc(OC)c(OC)c2)C(C)C)cc1OC (centres unmarked) [verapamil]	-73	80 ± 9	-53	17	significantly increases the efficacy of moxidectin	not significant	significantly enhances the efficacy of ivermectin	no significant effect on worm counts
CO/N=C1\C[C@]2(C[C@@H]3C[C@@H](C/C=C(\C)C[C@@H](C)/C=C/C=C4\CO[C@@H]5[C@H](O)C(C)=C[C@@H](C(=O)O3)[C@]45O)O2)O[C@H](/C(C)=C/C(C)C)[C@H]1C [moxidectin, 23-(O-methyloxime)-LL-F28249α]	70	14 ± 3						
